We go through five compounds from article PMC12777510 (Chempluschem, 2025).

Data set [1] concerns Fusarium graminearum. The following applies: broth microdilution, RPMI 1640 pH 7, 96-well plates, 28 °C for 48 h, no agitation, visual read-out, lowest concentration with complete inhibition of growth; DMSO max 2.5% v/v; triplicate.
For data set [2], the system named is Candida albicans. The settings on record: for MIC C. albicans: 24 h, pH 7.
For data set [3] the following is noted: HPLC retention times compared to parent iturin A2, result in words.
For data set [4] the following is noted: 19F NMR samples in D2O containing Saboraud Dextrose Broth (30 g/L), 5% d6-DMSO added to avoid precipitation.
Data set [5] relates to Fusarium graminearum. The experiment in a line: microbe, parasite or virus in culture. The following applies: 48 h, pH 7, read-out: MIC F. graminearum.
In data set [6] the test system is Candida albicans. The experiment in a line: microbe, parasite or virus in culture. The settings on record: 24 h, pH 7, read-out: MIC C. albicans.

Values after ≈ are worked out from the molar mass of the structure shown. Where two headings read alike, the source gives them in different places. *1 amine or outer side, *2 acyl side, *3 side chain or, on linkers, in order; H or OH if unused. Where a SMILES comes first, the peptide text is derived from it. [ ]: non-standard residue; d: D form. X2 = O=C([C@@H](Cc1cc(C(F)(F)F)c(O)c(C(F)(F)F)c1)N[*:1])[*:2]; Aminotetradecanoyl(3R) = CCCCCCCCCCC[C@H](CC(=O)[*:2])N[*:1]; dTyr(3-CF3) = N[C@H](Cc1ccc(O)c(C(F)(F)F)c1)C(=O)O; X1 = O=C(C[C@@H](CCCCCCCCCCC(F)(F)F)N[*:1])[*:2]

Turning to `CCCCCCCCCCC[C@@H]1CC(=O)N[C@@H](CC(N)=O)C(=O)N[C@H](Cc2ccc(O)cc2)C(=O)N[C@H](CC(N)=O)C(=O)N[C@@H](CCC(N)=O)C(=O)N2CCC[C@H]2C(=O)N[C@H](CC(N)=O)C(=O)N[C@@H](CO)C(=O)N1` [Synthetic iturin A2, iturin A2, reference compound] (cyclo(N[dY][dN]QP[dN]S[Aminotetradecanoyl(3R)])), the “MIC F. graminearum” value with Fusarium graminearum [1] amounted to 16 µM (≈ 16.7 µg/mL). For the same compound, in the data set on Candida albicans [2], the “MIC C. albicans” value came to 64 µM (≈ 66.8 µg/mL).
Consider `CCCCCCCCCCC[C@@H]1CC(=O)N[C@@H](CC(N)=O)C(=O)N[C@H](Cc2cc(C(F)(F)F)c(O)c(C(F)(F)F)c2)C(=O)N[C@H](CC(N)=O)C(=O)N[C@@H](CCC(N)=O)C(=O)N2CCC[C@H]2C(=O)N[C@H](CC(N)=O)C(=O)N[C@@H](CO)C(=O)N1` [Compound 11, di‐o‐CF3‐Tyr iturin A2] (cyclo(N[X2][dN]QP[dN]S[Aminotetradecanoyl(3R)])), for which the “MIC F. graminearum” value in the data set on Fusarium graminearum [1] was more than 128 µM. In addition, in the data set on Candida albicans [2], the “MIC C. albicans” value was more than 128 µM. For the same compound, the “relative lipophilicity (hydrophobicity) by HPLC retention, compared to the natural lipopeptide” value in data set [3] is “increased proportionally to the increase in fluorine content”.
Turning to `NC(=O)CC[C@@H]1NC(=O)[C@@H](CC(N)=O)NC(=O)[C@@H](Cc2ccc(O)cc2)NC(=O)[C@H](CC(N)=O)NC(=O)C[C@@H](CCCCCCCCCCC(F)(F)F)NC(=O)[C@H](CO)NC(=O)[C@@H](CC(N)=O)NC(=O)[C@@H]2CCCN2C1=O` [Compound 9, ω‐CF3 iturin A2] (cyclo(N[dY][dN]QP[dN]S[X1])), the “MIC F. graminearum” value in the data set with Fusarium graminearum [1] was 64 µM (≈ 70.2 µg/mL). In addition, in the data set with Candida albicans [2], the “change in bioactivity against C. albicans compared to iturin A2” value is on record as “completely retains the bioactivity” and the “MIC C. albicans” value turned out to be 64 µM (≈ 70.2 µg/mL).
With `CCCCCCCCCCC[C@@H]1CC(=O)N[C@@H](CC(N)=O)C(=O)N[C@H](Cc2ccc(O)c(C(F)(F)F)c2)C(=O)N[C@H](CC(N)=O)C(=O)N[C@@H](CCC(N)=O)C(=O)N2CCC[C@H]2C(=O)N[C@H](CC(N)=O)C(=O)N[C@@H](CO)C(=O)N1` [Compound 10, o‐CF3‐Tyr iturin A2] (cyclo(N[dTyr(3-CF3)][dN]QP[dN]S[Aminotetradecanoyl(3R)])), in the data set with Fusarium graminearum [1], the “MIC F. graminearum” value was 128 µM (≈ 142 µg/mL). Further, the “MIC C. albicans” value against Candida albicans [2] is 128 µM (≈ 142 µg/mL). This compound also had an aqueous solubility in data set [4] of 50 µM (≈ 55.6 µg/mL). Besides, the results for the “relative lipophilicity (hydrophobicity) by HPLC retention, compared to the natural lipopeptide” value in data set [3] and in data set [3] (listed as o‐CF3‐Tyr) were “pronounced increase in lipophilicity” and “increased proportionally to the increase in fluorine content”, respectively.
As to `C[C@@H]1[C@H](O)[C@@H](C)/C=C/C=C/C=C/C=C/C=C/C=C/C=C/[C@H](O[C@@H]2O[C@H](C)[C@@H](O)[C@H](N)[C@@H]2O)C[C@@H]2O[C@](O)(C[C@@H](O)C[C@@H](O)[C@H](O)CC[C@@H](O)C[C@@H](O)CC(=O)O[C@H]1C)C[C@H](O)[C@H]2C(=O)O` [Amphotericin B], the figures for the MIC in the data set with Fusarium graminearum [5] and in the data set on Candida albicans [6] were 4 µM (≈ 3.7 µg/mL) and 2 µM (≈ 1.85 µg/mL), respectively.
